What all share (type): cell-based
For assay [1], the system named is Hi- and Lo-Myc cell lines. Nature of the assay: Proliferation of Hi- and Lo-Myc cell lines transfected with lentiviral vectors expressing GFP, HNB or HNB(ATG>TGA). To be noted: 8 Hi- and Lo-Myc cell lines; lentiviral overexpression. The source says: To determine the function of the HNB, the Hi- and Lo-Myc cell lines were transfected with lentiviral vectors expressing GFP, HNB or HNB where the start site has been mutated (HNB(ATG>TGA)).

In a further assay the test system is MSTO-211H-HNB^i. The assay can be described thus: Proliferation after Doxycycline-induced HNB expression, MSTO-211H-HNB^i. To be noted: following Doxycycline treatment. How it is done: (§1) In addition, an inducible lentiviral system was developed, in which the transgene could be expressed under a Doxycycline inducible promoter. The system was verified by inserting eGFP as the transgene and by flow analysis of GFP^+ cells in absence and presence of doxycycline as shown in FIG. 8. […] The same system was used to clone HNB under the regulation of a Doxycycline inducible promoter and generate the cell lines MSTO-211H-HNB^i and U2OS-HNB^i. […] Western blot analysis was performed of Myc protein in Hi-Myc cell line MSTO-211H-HNB^i.

For the next assay, the system named is U2OS-HNB^i. The assay can be described thus: Proliferation after Doxycycline-induced HNB expression, U2OS-HNB^i. To be noted: following Doxycycline treatment. How it is done: as §1
Another assay relates to Myc protein. The assay can be described thus: Western blot of Myc protein after Doxycycline-induced HNB expression in MSTO-211H-HNB^i. To be noted: Hi-Myc cell line MSTO-211H-HNB^i; following Doxycycline induction. On the procedure: as §1

“Also recorded” adds a separate entry of the source.

For the substance “HNB: 14 amino acid micro-peptide MKTQLGAVKGFLHV (SEQ ID NO: 1) coded by shORF at Exon 3-4 junction of PVT1ts; expressed from lentiviral vectors”, the proliferation result in assay [1] is given as “failed to proliferate”. The proliferation rate entry in the assay with MSTO-211H-HNB^i and in the assay with U2OS-HNB^i was “significant reduction in their proliferation rates” in each case. Also, the “Myc protein expression (western blot, relative to β-Actin)” value with Myc protein is “decreased; also recorded: reduced MYC protein”.

(Values after patent US12516085B2, “Methods and compositions for treating Myc-driven cancers” (Sanford Burnham Prebys Medical Discovery Institute, priority 2019, dated 2026).)
